The text below walks through data of PMC5428354, “Screening of a natural compound library identifies emodin, a natural compound from Rheum palmatum Linn that inhibits DPP4” (PeerJ, 2017).

Holding throughout (type): biochemical
Assay [1] deals with DPP8 (Homo sapiens, UniProt Q6V1X1). Put plainly: DPP8 activity assay (BPS Bioscience kit).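 As to DPP8 assay, Emission (450 nm): fluorescence read with excitation at 365 nm.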 As to conditions: 100 µM, Exp #1-#5; for DPP8 activity: DMSO = Ctrl. On the procedure: A DPP8 assay kit was purchased from BPS Bioscience (Cat# 800208), and the assay protocol was followed to test for inhibitory activity on DPP8. Briefly, DPP substrate 1 was diluted to make a 100 µM stock solution, and DPP8 protein was diluted in DPP assay buffer to 2 ng/µl (20 ng/reaction). For the tested compounds, 10 µl of diluted DPP8 protein, 5 µl of diluted DPP substrate 1, 84 µl of DPP assay buffer and 1 µl of inhibitor were addedinto the assay system for a total volume of 100 µl. The reaction mixtures were prepared in duplicate on a 96-well plate and incubated at room temperature for 10 min. […]
Sequence of DPP8 (Q6V1X1 whole entry): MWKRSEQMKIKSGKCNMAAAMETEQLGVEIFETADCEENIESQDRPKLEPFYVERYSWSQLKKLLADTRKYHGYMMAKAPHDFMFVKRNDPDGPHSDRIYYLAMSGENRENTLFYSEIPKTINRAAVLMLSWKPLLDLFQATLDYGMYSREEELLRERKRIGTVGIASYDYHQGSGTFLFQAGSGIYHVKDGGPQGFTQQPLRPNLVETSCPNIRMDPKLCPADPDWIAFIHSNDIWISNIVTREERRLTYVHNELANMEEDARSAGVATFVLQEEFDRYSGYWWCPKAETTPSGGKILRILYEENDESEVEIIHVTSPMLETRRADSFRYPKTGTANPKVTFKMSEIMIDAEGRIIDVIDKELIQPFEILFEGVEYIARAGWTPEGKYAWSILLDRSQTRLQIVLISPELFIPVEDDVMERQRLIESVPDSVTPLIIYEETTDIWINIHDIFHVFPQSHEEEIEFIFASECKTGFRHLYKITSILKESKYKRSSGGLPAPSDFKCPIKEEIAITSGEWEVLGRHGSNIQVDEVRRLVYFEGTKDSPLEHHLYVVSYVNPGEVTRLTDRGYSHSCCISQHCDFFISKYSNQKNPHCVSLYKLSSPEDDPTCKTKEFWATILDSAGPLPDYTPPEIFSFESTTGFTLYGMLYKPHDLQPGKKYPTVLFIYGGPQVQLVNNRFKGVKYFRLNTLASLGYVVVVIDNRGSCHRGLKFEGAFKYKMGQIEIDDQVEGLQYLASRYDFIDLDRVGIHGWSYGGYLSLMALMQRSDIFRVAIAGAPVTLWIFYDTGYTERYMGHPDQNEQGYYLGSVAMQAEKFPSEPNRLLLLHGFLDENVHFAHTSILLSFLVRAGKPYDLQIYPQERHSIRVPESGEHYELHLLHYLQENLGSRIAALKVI

For assay [2], the target named is DPP4 (Homo sapiens, UniProt P27487). In words: DPP4 activity assay (DPP4 inhibitor screening assay kit, Cayman).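 As to all read-outs here: fluorescence read at excitation 360 nm and emission 460 nm after the enzyme reaction ran 30 min at 37 °C in a 96-well plate.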 On the set-up: purchased Cayman Chemical, Ann Arbor, MI, USA. The conditions noted are these: for IC50: in vitro, read-out: IC50 of DPP4 Inhibition; for remaining activity at 10 µM: 0.5 h.
Sequence of DPP4 (P27487 whole entry): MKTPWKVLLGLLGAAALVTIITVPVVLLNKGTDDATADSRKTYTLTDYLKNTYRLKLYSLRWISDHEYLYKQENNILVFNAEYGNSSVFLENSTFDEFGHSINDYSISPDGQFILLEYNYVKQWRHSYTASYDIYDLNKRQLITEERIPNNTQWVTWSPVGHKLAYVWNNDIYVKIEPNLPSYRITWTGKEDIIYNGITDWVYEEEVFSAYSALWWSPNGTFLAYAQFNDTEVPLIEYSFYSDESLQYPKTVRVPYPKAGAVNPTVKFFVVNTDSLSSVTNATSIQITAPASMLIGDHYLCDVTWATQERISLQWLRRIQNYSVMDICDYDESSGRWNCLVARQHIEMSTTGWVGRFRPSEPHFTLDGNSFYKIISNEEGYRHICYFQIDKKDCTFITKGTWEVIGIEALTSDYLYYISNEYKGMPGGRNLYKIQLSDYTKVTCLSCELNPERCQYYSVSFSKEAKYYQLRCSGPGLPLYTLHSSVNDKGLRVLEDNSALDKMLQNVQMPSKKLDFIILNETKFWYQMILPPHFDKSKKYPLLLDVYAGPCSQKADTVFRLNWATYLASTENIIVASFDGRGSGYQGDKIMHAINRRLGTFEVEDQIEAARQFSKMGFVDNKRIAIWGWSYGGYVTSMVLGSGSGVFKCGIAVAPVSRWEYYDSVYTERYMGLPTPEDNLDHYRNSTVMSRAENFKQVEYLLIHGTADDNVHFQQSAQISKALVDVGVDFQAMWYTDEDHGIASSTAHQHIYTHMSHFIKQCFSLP
Assay [3] concerns the target T1, DPP9 (Homo sapiens, UniProt Q86TI2).
T1 construct: purchased BPS Bioscience 800209
Put plainly: DPP9 activity assay (BPS Bioscience kit).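 As to DPP9 assay, Emission (450 nm): 20 ng DPP9 per 100 µl reaction with DPP substrate 1.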 The conditions noted are these: 100 µM, Well #1-#3; for DPP9 activity: DMSO = Ctrl.

Where [4] appears, read: 10 µM, control mean 100.0, Figure 1A raw data, read-out: DPP4 activity in library screen, Exp 1.
[5] abbreviates: 10 µM, control mean 100.0, Figure 1A raw data, read-out: DPP4 activity in library screen, Exp 2.
[6] abbreviates: 10 µM, control mean 100.0, Figure 1A raw data, read-out: DPP4 activity in library screen, Exp 3.
Setting [7] is: 10 µM, control mean 100.0, mean of Exp 1-3, read-out: DPP4 activity in library screen, Mean.
[8] abbreviates: 10 µM, control mean 100.0, Figure 1A raw data.
Where [9] appears, read: 10 µM, control mean 100.0, mean of Exp 1-3.
The mark [10] stands for this setting: read-out: DPP4 activity in library screen, Exp 1.
[11] abbreviates: read-out: DPP4 activity in library screen, Exp 2.
Where [12] appears, read: read-out: DPP4 activity in library screen, Mean.

Molecules are shown by their SMILES. “And” between values parts separate entries of the source, which are not always exact repeats. Equal values may be shown once. Read-outs that look alike come from different tables or passages of the source.

T1 sequence (Q86TI2 whole entry): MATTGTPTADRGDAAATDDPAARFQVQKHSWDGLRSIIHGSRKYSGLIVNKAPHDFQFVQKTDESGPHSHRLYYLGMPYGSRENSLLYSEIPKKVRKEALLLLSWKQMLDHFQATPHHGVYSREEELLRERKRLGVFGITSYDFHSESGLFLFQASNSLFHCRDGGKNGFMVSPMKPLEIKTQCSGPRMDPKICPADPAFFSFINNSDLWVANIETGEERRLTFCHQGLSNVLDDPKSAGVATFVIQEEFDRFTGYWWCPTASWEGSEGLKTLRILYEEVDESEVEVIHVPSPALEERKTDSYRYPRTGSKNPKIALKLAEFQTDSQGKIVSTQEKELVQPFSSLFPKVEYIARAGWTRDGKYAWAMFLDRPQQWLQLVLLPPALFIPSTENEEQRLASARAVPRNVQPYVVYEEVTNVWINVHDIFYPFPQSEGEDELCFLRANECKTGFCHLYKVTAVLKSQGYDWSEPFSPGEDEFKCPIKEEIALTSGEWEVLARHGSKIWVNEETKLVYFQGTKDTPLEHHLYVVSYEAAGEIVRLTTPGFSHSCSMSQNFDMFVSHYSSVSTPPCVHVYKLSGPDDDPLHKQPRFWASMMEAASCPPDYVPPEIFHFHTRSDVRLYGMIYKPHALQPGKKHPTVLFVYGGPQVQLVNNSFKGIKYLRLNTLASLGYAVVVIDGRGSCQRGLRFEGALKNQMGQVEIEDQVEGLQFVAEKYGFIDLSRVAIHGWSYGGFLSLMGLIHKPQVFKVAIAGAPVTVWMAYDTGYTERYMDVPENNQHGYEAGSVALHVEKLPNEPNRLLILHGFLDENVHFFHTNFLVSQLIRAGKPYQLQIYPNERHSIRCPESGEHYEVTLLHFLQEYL

One may read the Ki as the dissociation constant of the complex between target and ligand, obtained from inhibition or displacement. A high value points to lower affinity. What is called IC50 is the concentration that gives 50% inhibition. Regarding `O=C1c2cccc(O)c2C(=O)c2c(O)cc(CO)cc21` [Aloe-emodin], in assay [1], the “DPP8 assay, Emission (450 nm)” value is 28333 and 31255 and 28705 and 40933 and 31387; the DPP8 activity was 59.6 % of Ctrl and 101.9 % of Ctrl and 112.4 % of Ctrl and 103.3 % of Ctrl and 77.7 % of Ctrl. The compound further registered a Ki in assay [2] (DPP4, means ± SE) of 2.37 ± 0.62 µM. In assay [2] (means ± SE), the IC50 worked out at 16 ± 4.24 µM. For the same compound, in assay [3], the “DPP9 assay, Emission (450 nm)” value is 45255 and 48696 and 44751; the DPP9 activity is 92.9 % of Ctrl and 100.0 % of Ctrl and 91.9 % of Ctrl.
For `Cc1cc(O)c2c(c1)C(=O)c1cccc(O)c1C2=O` [Chrysophanol], the “DPP8 assay, Emission (450 nm)” value in assay [1] is 27057 and 31330 and 23865 and 45793 and 40995. Also, the DPP8 activity in assay [1] is 77.8 % of Ctrl and 97.3 % of Ctrl and 112.7 % of Ctrl and 85.8 % of Ctrl and 86.9 % of Ctrl. The remaining activity at 10 µM came out at 64.4% in assay [2] (setting [4]), 60% in assay [2] (setting [5]), 75% in assay [2] (setting [6]) and 66.5% in assay [2] (setting [7]). Also, the IC50 in assay [2] (means ± SE) is more than 100 µM. The “DPP9 assay, Emission (450 nm)” value in assay [3] is 43157 and 48875 and 45154. In addition, the DPP9 activity in assay [3] is 88.6 % of Ctrl and 100.3 % of Ctrl and 92.7 % of Ctrl.
For the compound `O=C1Nc2ccccc2/C1=C1/Nc2ccccc2C1=O` [Indirubin], the remaining activity at 10 µM in assay [2] (setting [4]) was 53.9%; in assay [2] (setting [5]), 58.9%; in assay [2] (setting [6]) it was 61.7%; in assay [2] (setting [7]), 58.2%.
In the same order, the values of `COc1ccc2cc1Oc1ccc(cc1)C[C@H]1c3cc(c(OC)cc3CCN1C)Oc1c(OC)c(OC)cc3c1[C@H](C2)N(C)CC3` [Tetrandrine] are 99.9%, 98%, 99.8% and 99.2%.
For the compound `COc1cc2c(cc1O)C[C@@H]1NCCc3cc(OC)c(O)c-2c31` [Norisoboldine], in assay [2] (setting [8]), the “DPP4 activity in library screen, Exp 1” value came out at 95.3; the “DPP4 activity in library screen, Exp 2” value is recorded as 99.3; the “DPP4 activity in library screen, Exp 3” value was found to be 71. Moreover, in assay [2] (setting [9]), the “DPP4 activity in library screen, Mean” value was found to be 88.5.
As for `COC1=C[C@@H]2[C@@H]3Cc4ccc(OC)c(O)c4[C@]2(CCN3C)CC1=O` [Sinomenine], the figures for the remaining activity at 10 µM in assay [2] (setting [10]), in assay [2] (setting [11]) and in assay [2] (setting [12]) were 103%, 93.4% and 104%, respectively.
On to `O=c1c(-c2ccc(O)cc2)coc2c([C@@H]3O[C@H](CO)[C@@H](O)[C@H](O)[C@H]3O)c(O)ccc12` [Puerarin], for which the remaining activity at 10 µM in assay [2] (setting [4]) is 94.4%; in assay [2] (setting [5]), 98%; in assay [2] (setting [6]), 93.8%; in assay [2] (setting [7]), 95.4%.
In the same order, the values of `C[C@@H]1O[C@@H](OC[C@H]2O[C@@H](Oc3c(-c4ccc(O)c(O)c4)oc4cc(O)cc(O)c4c3=O)[C@H](O)[C@@H](O)[C@@H]2O)[C@H](O)[C@H](O)[C@H]1O` [Rutin] are 78.7%, 73.8%, 50.1% and 67.5%.
For `COc1cc(C2Oc3cc([C@H]4Oc5cc(O)cc(O)c5C(=O)[C@@H]4O)ccc3OC2CO)ccc1O` (stereo partly drawn) [Silibinin], in that order: 65.1%, 76.8%, 67.3% and 69.7%.
Turning to `CC(C)[C@]12O[C@H]1[C@@H]1O[C@]13[C@]1(O[C@H]1C[C@H]1C4=C(CC[C@@]13C)C(=O)OC4)[C@@H]2O` [Triptolide (PG490), Triptolide], the remaining activity at 10 µM in assay [2] (read-out: DPP4 activity in library screen, Exp 1, 10 µM, control mean 100.0, Figure 1A raw data) amounted to 98.7%; in assay [2] (read-out: DPP4 activity in library screen, Exp 2, 10 µM, control mean 100.0, Figure 1A raw data), 94.9%; in assay [2] (read-out: DPP4 activity in library screen, Exp 3, 10 µM, control mean 100.0, Figure 1A raw data) it was 109%; in assay [2] (read-out: DPP4 activity in library screen, Mean, 10 µM, control mean 100.0, mean of Exp 1-3) it was 101%.
Regarding `CC(C)(C)[C@]1(O)CC2OC(=O)CC23C(=O)OC2OC(=O)[C@H](O)C231` (stereo partly drawn) [Bilobalide], the remaining activity at 10 µM in assay [2] (setting [10]) was 97.2%; in assay [2] (setting [11]), 94.5%; in assay [2] (read-out: DPP4 activity in library screen, Exp 3), 103%; in assay [2] (setting [12]) it was 98.2%.
As to `OC[C@H]1O[C@@H](Oc2cc(O)cc(/C=C/c3ccc(O)cc3)c2)[C@H](O)[C@@H](O)[C@@H]1O` [Polydatin], the remaining activity at 10 µM was 89.6% in assay [2] (setting [4]), 81.3% in assay [2] (setting [5]), 70% in assay [2] (setting [6]) and 80.3% in assay [2] (setting [7]).
As to `COc1cc(CCC(C)=O)ccc1O` [Vanillylacetone], in assay [2] (setting [8]), the “DPP4 activity in library screen, Exp 1” value came to 87.8; the “DPP4 activity in library screen, Exp 2” value is listed as 96.8; the “DPP4 activity in library screen, Exp 3” value came to 79.9. Besides, the “DPP4 activity in library screen, Mean” value in assay [2] (setting [9]) was determined as 88.2.
For `O=C1C=CC[C@@H]2[C@H]3CCCN4CCC[C@@H](CN12)[C@@H]34` [Sophocarpine], the remaining activity at 10 µM in assay [2] (setting [4]) came out at 96.7%; in assay [2] (setting [5]), 109%; in assay [2] (setting [6]) it was 111%; in assay [2] (setting [7]), 105%.
In the same order, the values of `O=c1[nH]cnc2c1ncn2[C@@H]1O[C@H](CO)[C@@H](O)[C@H]1O` [Inosine] are 95.4%, 94.1%, 102% and 97.2%.
`C[C@H]1CC[C@]2(NC1)O[C@H]1C[C@H]3[C@@H]4CC[C@H]5C[C@@H](O[C@@H]6O[C@H](CO)[C@H](O[C@@H]7O[C@H](CO)[C@@H](O)[C@H](O[C@@H]8OC[C@@H](O)[C@H](O)[C@H]8O)[C@H]7O[C@@H]7O[C@H](CO)[C@@H](O)[C@H](O)[C@H]7O)[C@H](O)[C@H]6O)CC[C@]5(C)[C@H]4CC[C@]3(C)[C@H]1[C@@H]2C` [Tomatine]: the remaining activity at 10 µM in assay [2] (setting [4]) was 103%; in assay [2] (setting [5]), 91.8%; in assay [2] (setting [6]), 124%; in assay [2] (setting [7]) it was 106%.
In the same order, the values of `O=c1c(O)c(-c2ccc(O)c(O)c2)oc2cc(O)ccc12` [Fisetin] are 72.3%, 74%, 51.8% and 66%.
In the same order, the values of `Cc1coc2c1C(=O)C(=O)c1c-2ccc2c(C)cccc12` [Tanshinone I] are 56.8%, 59.3%, 58.1% and 58.1%.
In the same order, the values of `O=[N+]([O-])c1ncc[nH]1` [Azomycin] are 74.2%, 78.5%, 76.2% and 76.3%.
Regarding `O=c1c2ccccc2nc2n1CCc1c-2[nH]c2ccccc12` [Rutaecarpine], the remaining activity at 10 µM in assay [2] (setting [4]) stood at 71.3%; in assay [2] (setting [5]) it was 78.6%; in assay [2] (setting [6]) it was 71.4%; in assay [2] (setting [7]) it was 73.8%.
On to `COc1ccc([C@@H]2CC(=O)c3c(O)cc(O[C@@H]4O[C@H](CO[C@@H]5O[C@@H](C)[C@H](O)[C@@H](O)[C@H]5O)[C@@H](O)[C@H](O)[C@H]4O)cc3O2)cc1O` [Hesperidin], for which, in assay [2] (setting [8]), the “DPP4 activity in library screen, Exp 1” value came to 97.2; the “DPP4 activity in library screen, Exp 2” value is recorded as 95.1; the “DPP4 activity in library screen, Exp 3” value was 85.1. In addition, the “DPP4 activity in library screen, Mean” value in assay [2] (setting [9]) was determined as 92.5.
Consider `O=c1[nH]cnc2nc[nH]c12` [Hypoxanthine], for which the remaining activity at 10 µM turned out to be 96.7% in assay [2] (setting [4]), 99.3% in assay [2] (setting [5]), 98.5% in assay [2] (setting [6]) and 98.2% in assay [2] (setting [7]).
In the same order, the values of `COc1ccc(-c2cc(=O)c3c(O)cc(O)cc3o2)cc1O` [Diosmetin] are 77.2%, 77.5%, 77.6% and 77.4%.
For `C[C@H]1[C@H](C)CC[C@]2(C(=O)O)CC[C@]3(C)C(=CC[C@@H]4[C@@]5(C)C[C@@H](O)[C@H](O)[C@@](C)(CO)[C@@H]5CC[C@]43C)[C@H]12` [Asiatic Acid], the remaining activity at 10 µM was determined as 83.3% in assay [2] (setting [4]), 65.3% in assay [2] (setting [5]), 130% in assay [2] (setting [6]) and 93% in assay [2] (setting [7]).
